From PMC6919601, “Identification of Plasmodium dipeptidyl aminopeptidase allosteric inhibitors by high throughput screening” (PLoS ONE, 2019)

Molecular target: T1, DPAP1 (Plasmodium falciparum, UniProt Q8IIJ9)
T1 sequence (Q8IIJ9 370-599 limits assumed): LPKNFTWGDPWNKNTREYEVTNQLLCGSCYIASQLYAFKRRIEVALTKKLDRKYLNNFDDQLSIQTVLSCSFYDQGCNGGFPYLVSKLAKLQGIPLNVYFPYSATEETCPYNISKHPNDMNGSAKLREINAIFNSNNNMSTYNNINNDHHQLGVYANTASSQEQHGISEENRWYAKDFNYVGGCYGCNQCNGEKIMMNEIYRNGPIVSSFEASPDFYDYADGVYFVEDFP
T1 sequence (Q8IIJ9 28-209 limits assumed): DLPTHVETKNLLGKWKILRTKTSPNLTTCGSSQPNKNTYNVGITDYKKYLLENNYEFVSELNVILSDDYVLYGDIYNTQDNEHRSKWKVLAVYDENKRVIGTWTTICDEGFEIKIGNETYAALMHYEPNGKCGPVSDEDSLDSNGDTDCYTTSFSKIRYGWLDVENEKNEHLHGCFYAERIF
T1 sequence (Q8IIJ9 600-700 limits assumed): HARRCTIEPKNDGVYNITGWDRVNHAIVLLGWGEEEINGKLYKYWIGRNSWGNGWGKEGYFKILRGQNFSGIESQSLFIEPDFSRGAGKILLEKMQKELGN
Assay: biochemical
Assay type: biochemical
Conditions: for DPAP Primary hit (Hit = 1): 10 μM HTS, 0 not defined; for inhibition at 10 µM: 10 μM compound, parasite lysates, (PR)2Rho, 30 min end-point, read-out: DPAP1 % Inhibition @ 10 uM

Structure (SMILES)	DPAP Primary hit (Hit = 1)	inhibition at 10 µM [%]
COc1ccc(C2CC(=O)N3CN(Cc4ccccc4)CSC3=C2C#N)cc1OC (stereo not drawn) [SMDC170071, COc1ccc(cc1OC)C2CC(=O)N3CN(Cc4ccccc4)CSC3=C2C#N]	0	7
N#CC1=C2SCN(Cc3ccco3)CN2C(=O)CC1c1ccc(Cl)cc1 (stereo not drawn) [SMDC170081, Clc1ccc(cc1)C2CC(=O)N3CN(Cc4occc4)CSC3=C2C#N]	0	42
N#CC1=C2SCN(Cc3ccccc3)CN2C(=O)CC1c1ccc(Cl)cc1 (stereo not drawn) [SMDC170091, Clc1ccc(cc1)C2CC(=O)N3CN(Cc4ccccc4)CSC3=C2C#N]	0	42
Cc1ccc(C2CC(=O)N3CN(C4CCCCC4)CSC3=C2C#N)cc1 (stereo not drawn) [SMDC170101, Cc1ccc(cc1)C2CC(=O)N3CN(CSC3=C2C#N)C4CCCCC4]	0	26
Cc1ccccc1C1CC(=O)N2CN(Cc3ccco3)CSC2=C1C#N (stereo not drawn) [SMDC170102, Cc1ccccc1C2CC(=O)N3CN(Cc4occc4)CSC3=C2C#N]	0	26
CCc1ccc(C2CC(=O)N3CN(C4CCCCC4)CSC3=C2C#N)cc1 (stereo not drawn) [SMDC170103, CCc1ccc(cc1)C2CC(=O)N3CN(CSC3=C2C#N)C4CCCCC4]	1	65
CCOc1ccc(C2CC(=O)N3CN(C)CSC3=C2C#N)cc1OC (stereo not drawn) [SMDC170104, CCOc1ccc(cc1OC)C2CC(=O)N3CN(C)CSC3=C2C#N]	0	48
N#CC1=C2SCN(Cc3ccccc3)CN2C(=O)CC1c1cccs1 (stereo not drawn) [SMDC170105, O=C1CC(C(=C2SCN(Cc3ccccc3)CN12)C#N)c4cccs4]	0	41
COc1ccc2ccccc2c1C1CC(=O)N2CN(Cc3ccccc3)CSC2=C1C#N (stereo not drawn) [SMDC170106, COc1ccc2ccccc2c1C3CC(=O)N4CN(Cc5ccccc5)CSC4=C3C#N]	0	36
Cc1ccccc1C1CC(=O)N2CN(C3CCCCC3)CSC2=C1C#N (stereo not drawn) [SMDC170112, Cc1ccccc1C2CC(=O)N3CN(CSC3=C2C#N)C4CCCCC4]	0	24
CCc1ccc(C2CC(=O)N3CN(Cc4ccccc4)CSC3=C2C#N)cc1 (stereo not drawn) [SMDC170113, CCc1ccc(cc1)C2CC(=O)N3CN(Cc4ccccc4)CSC3=C2C#N]	0	39
CN1CSC2=C(C#N)C(c3ccccc3)CC(=O)N2C1 (stereo not drawn) [SMDC170114, CN1CSC2=C(C#N)C(CC(=O)N2C1)c3ccccc3]	0	33
CN1CSC2=C(C#N)C(c3ccc(Br)cc3)CC(=O)N2C1 (stereo not drawn) [SMDC170115, CN1CSC2=C(C#N)C(CC(=O)N2C1)c3ccc(Br)cc3]	0	43
COc1ccc2ccccc2c1C1CC(=O)N2CN(C3CCCCC3)CSC2=C1C#N (stereo not drawn) [SMDC170116, COc1ccc2ccccc2c1C3CC(=O)N4CN(CSC4=C3C#N)C5CCCCC5]	0	27
Cc1ccccc1C1CC(=O)N2CN(Cc3ccccc3)CSC2=C1C#N (stereo not drawn) [SMDC170122, Cc1ccccc1C2CC(=O)N3CN(Cc4ccccc4)CSC3=C2C#N]	0	31
CSc1ccc(C2CC(=O)N3CN(C)CSC3=C2C#N)cc1 (stereo not drawn) [SMDC170124, CSc1ccc(cc1)C2CC(=O)N3CN(C)CSC3=C2C#N]	1	75
COc1ccc(Br)cc1C1CC(=O)N2CN(Cc3ccco3)CSC2=C1C#N (stereo not drawn) [SMDC170125, COc1ccc(Br)cc1C2CC(=O)N3CN(Cc4occc4)CSC3=C2C#N]	1	61
CN1CSC2=C(C#N)C(c3cccc(OCc4ccccc4)c3)CC(=O)N2C1 (stereo not drawn) [SMDC170126, CN1CSC2=C(C#N)C(CC(=O)N2C1)c3cccc(OCc4ccccc4)c3]	1	71
N#CC1=C2SCN(C3CCCCC3)CN2C(=O)CC1c1ccccc1F (stereo not drawn) [SMDC170132, Fc1ccccc1C2CC(=O)N3CN(CSC3=C2C#N)C4CCCCC4]	0	38
COc1ccc(OC)c(C2CC(=O)N3CN(Cc4ccco4)CSC3=C2C#N)c1 (stereo not drawn) [SMDC170133, COc1ccc(OC)c(c1)C2CC(=O)N3CN(Cc4occc4)CSC3=C2C#N]	0	7
COc1cccc(C2CC(=O)N3CN(Cc4ccco4)CSC3=C2C#N)c1OC (stereo not drawn) [SMDC170134, COc1cccc(C2CC(=O)N3CN(Cc4occc4)CSC3=C2C#N)c1OC]	0	19
CCOc1ccc(C2CC(=O)N3CN(Cc4ccco4)CSC3=C2C#N)cc1 (stereo not drawn) [SMDC170142, CCOc1ccc(cc1)C2CC(=O)N3CN(Cc4occc4)CSC3=C2C#N]	0	43
CCOc1ccc(C2CC(=O)N3CN(C4CCCCC4)CSC3=C2C#N)cc1 (stereo not drawn) [SMDC170152, CCOc1ccc(cc1)C2CC(=O)N3CN(CSC3=C2C#N)C4CCCCC4]	0	47
CCOc1ccc(C2CC(=O)N3CN(Cc4ccccc4)CSC3=C2C#N)cc1 (stereo not drawn) [SMDC170162, CCOc1ccc(cc1)C2CC(=O)N3CN(Cc4ccccc4)CSC3=C2C#N]	0	49
CCc1ccc(C2CC(=O)N3CN(Cc4ccco4)CSC3=C2C#N)cc1 (stereo not drawn) [SMDC170172, CCc1ccc(cc1)C2CC(=O)N3CN(Cc4occc4)CSC3=C2C#N]	0	34

The remaining lines, values ahead:

DPAP Primary hit (Hit = 1)	inhibition at 10 µM [%]	Structure (SMILES)
1	60	COc1ccc(Br)cc1C1CC(=O)N2CN(C3CCCCC3)CSC2=C1C#N (stereo not drawn) [SMDC170135, COc1ccc(Br)cc1C2CC(=O)N3CN(CSC3=C2C#N)C4CCCCC4]
0	10	COc1ccc(OC)c(C2CC(=O)N3CN(C4CCCCC4)CSC3=C2C#N)c1 (stereo not drawn) [SMDC170143, COc1ccc(OC)c(c1)C2CC(=O)N3CN(CSC3=C2C#N)C4CCCCC4]
0	22	COc1cccc(C2CC(=O)N3CN(C4CCCCC4)CSC3=C2C#N)c1OC (stereo not drawn) [SMDC170144, COc1cccc(C2CC(=O)N3CN(CSC3=C2C#N)C4CCCCC4)c1OC]
1	59	COc1ccc(Br)cc1C1CC(=O)N2CN(C)CSC2=C1C#N (stereo not drawn) [SMDC170145, COc1ccc(Br)cc1C2CC(=O)N3CN(C)CSC3=C2C#N]
1	57	COc1cc(C2CC(=O)N3CN(Cc4ccccc4)CSC3=C2C#N)cc(Br)c1O (stereo not drawn) [SMDC170146, COc1cc(cc(Br)c1O)C2CC(=O)N3CN(Cc4ccccc4)CSC3=C2C#N]
0	18	COc1cc(C2CC(=O)N3CN(Cc4ccco4)CSC3=C2C#N)ccc1O (stereo not drawn) [SMDC170153, COc1cc(ccc1O)C2CC(=O)N3CN(Cc4occc4)CSC3=C2C#N]
0	32	COc1ccc(C2CC(=O)N3CN(Cc4ccccc4)CSC3=C2C#N)c(OC)c1 (stereo not drawn) [SMDC170154, COc1ccc(C2CC(=O)N3CN(Cc4ccccc4)CSC3=C2C#N)c(OC)c1]
1	61	COc1ccc(Br)cc1C1CC(=O)N2CN(Cc3ccccc3)CSC2=C1C#N (stereo not drawn) [SMDC170155, COc1ccc(Br)cc1C2CC(=O)N3CN(Cc4ccccc4)CSC3=C2C#N]
0	-1	COc1cc(C2CC(=O)N3CN(C4CCCCC4)CSC3=C2C#N)ccc1O (stereo not drawn) [SMDC170163, COc1cc(ccc1O)C2CC(=O)N3CN(CSC3=C2C#N)C4CCCCC4]
0	2	COc1cc(C2CC(=O)N3CN(C4CCCCC4)CSC3=C2C#N)cc(OC)c1OC (stereo not drawn) [SMDC170164, COc1cc(cc(OC)c1OC)C2CC(=O)N3CN(CSC3=C2C#N)C4CCCCC4]
0	31	COc1ccc2ccccc2c1C1CC(=O)N2CN(Cc3ccco3)CSC2=C1C#N (stereo not drawn) [SMDC170165, COc1ccc2ccccc2c1C3CC(=O)N4CN(Cc5occc5)CSC4=C3C#N]
1	52	N#CC1=C2SCN(Cc3ccccc3)CN2C(=O)CC1c1cccc2ccccc12 (stereo not drawn) [SMDC170166, O=C1CC(C(=C2SCN(Cc3ccccc3)CN12)C#N)c4cccc5ccccc45]
0	20	CCOc1cc(C2CC(=O)N3CN(Cc4ccccc4)CSC3=C2C#N)ccc1O (stereo not drawn) [SMDC170173, CCOc1cc(ccc1O)C2CC(=O)N3CN(Cc4ccccc4)CSC3=C2C#N]
0	4	COc1cc(C2CC(=O)N3CN(C)CSC3=C2C#N)cc(OC)c1OC (stereo not drawn) [SMDC170174, COc1cc(cc(OC)c1OC)C2CC(=O)N3CN(C)CSC3=C2C#N]
0	37	COc1ccc2ccccc2c1C1CC(=O)N2CN(C)CSC2=C1C#N (stereo not drawn) [SMDC170175, COc1ccc2ccccc2c1C3CC(=O)N4CN(C)CSC4=C3C#N]
0	46	N#CC1=C2SCN(Cc3ccco3)CN2C(=O)CC1c1cccc2ccccc12 (stereo not drawn) [SMDC170176, O=C1CC(C(=C2SCN(Cc3occc3)CN12)C#N)c4cccc5ccccc45]
0	44	Cc1ccc(C2CC(=O)N3CN(CCC(C)C)CSC3=C2C#N)cc1 (stereo not drawn) [SMDC178751, CC(C)CCN1CSC2=C(C#N)C(CC(=O)N2C1)c3ccc(C)cc3]
